Test results: patent US20080026084A1, “Method and composition for management of weight and blood sugar” (PhytoMyco Research Corporation, priority 2006, published 2008)

Tests used:
3T3-L1 cells = test: assays of this invention (lipolysis, inhibition of adipocyte differentiation, de-differentiation, leptin secretion); format: cell-based, mouse
Excerpt: Method i): Oil Red O staining which stains fat droplets in fat cells and thereby gives a directly related indication of the level of adipogenesis as a function of the amount of staining of fat droplets.
Method ii): GPDH or […] is a key enzyme involved in the pathway of triglyceride synthesis in the glycolytic pathway. Adipocytes express highlevels of this enzyme. Therefore, a reduction in GPDH levels is indicative of inhibition of adipogenesis (prevention of fat accumulation in cells).
Method iii): Assay to observe de-differentiation of adipocytes to preadipocytes can be used to detect compounds and mixtures of compounds that are capable of breaking down existing stores of body fat. This assay identifies compounds and mixtures of compounds than induce the […] of adipocytes to preadipocytes and is quantitatively assessed by developing a color response using Oil Red O staining or by measuring GPDH levels as in methods i) and ii), respectively. Such compounds and mixtures of compounds as extracts of plants can have a direct effect on reducing weight because they cause fat cells to become non-fat cells (preadipocytes).
Method iv) Leptin Secretion assay can be used to determine the presence of leptin which is a product of the Ob gene. It is a hormone secreted by mature adipocytes that plays a role in regulating body fat storage. High levels of leptin circulating in the blood indicate hormonally that energy stores are high, and therefore mitigate the need for further food intake. Compounds or mixtures of compounds of this invention that increase leptin secretion can be administered orally to an overweight or obese person to reduce appetite in that person, and therefore to reduce food intake by that person.
In this assay, pre-adipocyte cells are seeded in 96-well plates and are induced to convert to adipocytes over the course of a 10-15 day treatment with […] reagents. After cells have converted to adipocytes, the cells are starved, and then subsequently treated with or exposed to test compounds or mixtures of compounds or extracts of plants or fractionated extracts of plants. The adipocytes are treated with test compounds in the presence of a surrounding cell medium. Over the course of 1 to 3 hours after exposure to the test compounds or mixture of compounds, the amount of glycerol present in the cell medium is measured. Glycerol and fatty acids are hydrolysis products of triglycerides, and glycerol is released from cells after enzymatic hydrolysis or breakdown of lipids. Results are expressed as a percentage of the amount of glycerol present detected in a reference assay comprising an untreated control. Untreated controls are cells that are treated with vehicle only (such as 100% DMSO).
Inhibition of adipocyte differentiation is assayed by measuring the levels of the enzyme glycerol-3-phosphate dehydrogenase (GPDH). GPDH is involved in the pathway of triglyceride synthesis in the glycolytic pathway. Colorimetric assays can be used to screen for compounds and mixtures of compounds than inhibit the differentiation of preadipocytes to adipocytes. Oil Red O is a colorimetric assay that can be used to stain lipids in adipocytes.
In this assay pre-adipocyte cells require 10 to 15 days to differentiate into adipocytes. […] After cells have undergone the 10-15 days required to differentiate, cells are assessed for GPDH activity.
Results are expressed as a percentage of the untreated control average. […]

[1] = in vivo; cited from earlier work

Cephalandrol
activity in the assays of this invention (3T3-L1 cells): active

CC(C)(O)/C=C/C(=O)[C@](C)(O)[C@H]1[C@H](O)C[C@@]2(C)[C@@H]3CC=C4[C@@H](C[C@H](O)C(=O)C4(C)C)[C@]3(C)C(=O)C[C@]12C [cucurbitacin D]
activity in the assays of this invention (3T3-L1 cells): active

Cephalandrine A
activity in the assays of this invention (3T3-L1 cells): active

Cephalandrine B
activity in the assays of this invention (3T3-L1 cells): active

CCCCCCCCCCC[C@@H](C[C@@H]1OC(=O)[C@H]1CCCCCC)OC(=O)[C@H](CC(C)C)NC=O [Orlistat]
decrease of the amount of fat absorbed from the diet [1]: about 30%

CC(=O)OC(C)(C)/C=C/C(=O)[C@](C)(O)[C@H]1[C@H](O)C[C@@]2(C)[C@@H]3CC=C4[C@H](C[C@H](O)C(=O)C4(C)C)[C@]3(C)C(=O)C[C@]12C [cucurbitacin B]
activity in the assays of this invention (3T3-L1 cells): active
